Reference: ChEMBL document CHEMBL1909294, “Translating clinical findings into knowledge in drug safety evaluation--drug induced liver injury prediction system (DILIps)” (PLoS Comput Biol, 2011)

How the values were obtained:
[1] = system: Hepatotoxicity;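 as to HepSE elevated liver function tests: hepatic side effect score for raised liver function tests, as recorded in the DILIps training set used for predicting drug-induced liver injury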;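 as to HepSE hepatic necrosis: score of hepatic side effects for hepatic necrosis, drawn from the training data of DILIps, a prediction system for drug-induced liver injury; call rule not given here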;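 as to HepSE hepatomegaly: hepatic side effect score for hepatomegaly, taken from the training set of the DILIps drug-induced liver injury prediction system; call rule not given here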;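 as to HepSE jaundice: Jaundice-related hepatic side-effect score drawn from the training data of the DILIps (drug-induced liver injury prediction system); call rule not given here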;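 as to HepSE liver fatty: hepatic side effect score for fatty liver, taken from the DILIps training set for predicting drug-induced liver injury; call rule not given here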;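 as to HepSE liver function tests abnormal: hepatic side effect score taken from the DILIps (drug-induced liver injury prediction system) training data, here covering abnormal liver function test findings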
[2] = system: Hepatotoxicity; remark: listed apart in the source;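 as to HepSE elevated liver function tests: hepatic side effect score for raised liver function tests, as recorded in the DILIps training set used for predicting drug-induced liver injury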;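 as to HepSE hepatic necrosis: score of hepatic side effects for hepatic necrosis, drawn from the training data of DILIps, a prediction system for drug-induced liver injury; call rule not given here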;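 as to HepSE hepatomegaly: hepatic side effect score for hepatomegaly, taken from the training set of the DILIps drug-induced liver injury prediction system; call rule not given here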;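 as to HepSE jaundice: Jaundice-related hepatic side-effect score drawn from the training data of the DILIps (drug-induced liver injury prediction system); call rule not given here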;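 as to HepSE liver fatty: hepatic side effect score for fatty liver, taken from the DILIps training set for predicting drug-induced liver injury; call rule not given here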;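 as to HepSE liver function tests abnormal: hepatic side effect score taken from the DILIps (drug-induced liver injury prediction system) training data, here covering abnormal liver function test findings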
[3] = system: Hepatotoxicity; remark: listed apart in the source;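 as to HepSE elevated liver function tests: hepatic side effect score for raised liver function tests, as recorded in the DILIps training set used for predicting drug-induced liver injury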;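 as to HepSE hepatic necrosis: score of hepatic side effects for hepatic necrosis, drawn from the training data of DILIps, a prediction system for drug-induced liver injury; call rule not given here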;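 as to HepSE hepatomegaly: hepatic side effect score for hepatomegaly, taken from the training set of the DILIps drug-induced liver injury prediction system; call rule not given here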;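 as to HepSE liver fatty: hepatic side effect score for fatty liver, taken from the DILIps training set for predicting drug-induced liver injury; call rule not given here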;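 as to HepSE liver function tests abnormal: hepatic side effect score taken from the DILIps (drug-induced liver injury prediction system) training data, here covering abnormal liver function test findings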
[4] = system: Hepatotoxicity; remark: listed apart in the source;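 as to HepSE elevated liver function tests: hepatic side effect score for raised liver function tests, as recorded in the DILIps training set used for predicting drug-induced liver injury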;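 as to HepSE hepatic necrosis: score of hepatic side effects for hepatic necrosis, drawn from the training data of DILIps, a prediction system for drug-induced liver injury; call rule not given here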;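 as to HepSE hepatomegaly: hepatic side effect score for hepatomegaly, taken from the training set of the DILIps drug-induced liver injury prediction system; call rule not given here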;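 as to HepSE liver fatty: hepatic side effect score for fatty liver, taken from the DILIps training set for predicting drug-induced liver injury; call rule not given here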;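 as to HepSE liver function tests abnormal: hepatic side effect score taken from the DILIps (drug-induced liver injury prediction system) training data, here covering abnormal liver function test findings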
[5] = system: Hepatotoxicity; remark: listed apart in the source
[6] = system: Hepatotoxicity; remark: listed apart in the source
[7] = system: Hepatotoxicity; remark: listed apart in the source
[8] = system: Hepatotoxicity; remark: listed apart in the source
[9] = system: Hepatotoxicity; remark: listed apart in the source
[10] = system: Hepatotoxicity; remark: listed apart in the source
[11] = system: Hepatotoxicity; remark: listed apart in the source
[12] = system: Hepatotoxicity; remark: listed apart in the source
[13] = system: Hepatotoxicity; remark: listed apart in the source
[14] = system: Hepatotoxicity; remark: listed apart in the source

SMILES	HepSE_hepatic necrosis [1]	HepSE_elevated liver function tests [2]	HepSE_liver fatty [3]	HepSE_cholelithiasis [4]	HepSE_bilirubinemia [5]	HepSE_liver function tests abnormal [6]	HepSE_hepatomegaly [7]	HepSE_hepatitis [8]	HepSE_jaundice [9]	HepSE_cirrhosis [10]	HepSE_cholecystitis [11]	HepSE_Combined Scores [12]	HepSE_hepatic failure [13]	HepSE_liver disease [14]
Cc1onc(-c2ccccc2)c1C(=O)N[C@@H]1C(=O)N2[C@@H]1SC(C)(C)[C@@H]2C(=O)O [OXACILLIN]	0	0	0	0	0	1	0	0	0	0	0	1	0	0
O=C1OC2(c3ccc(O)cc3Oc3cc(O)ccc32)c2ccccc21 [FLUORESCEIN]	0	0	0	0	0	0	0	0	0	0	0	0	0	0
COC(=O)C1=C(C)NC(C)=C(C(=O)OC)C1c1ccccc1[N+](=O)[O-] [NIFEDIPINE]	0	0	0	0	0	0	0	1	1	0	0	2	0	0
CCCc1c2oc(C(=O)[O-])cc(=O)c2cc2c(=O)cc(C(=O)[O-])n(CC)c12.[Na+].[Na+] [NEDOCROMIL SODIUM]	0	0	0	0	0	0	0	0	0	0	0	0	0	0
CO[C@H]1O[C@H](COS(=O)(=O)[O-])[C@@H](O[C@@H]2O[C@@H](C(=O)[O-])[C@@H](O[C@H]3O[C@H](COS(=O)(=O)[O-])[C@@H](O[C@@H]4O[C@H](C(=O)[O-])[C@@H](O[C@H]5O[C@H](COS(=O)(=O)[O-])[C@@H](O)[C@H](O)[C@H]5NS(=O)(=O)[O-])[C@H](O)[C@H]4O)[C@H](OS(=O)(=O)[O-])[C@H]3NS(=O)(=O)[O-])[C@H](O)[C@H]2OS(=O)(=O)[O-])[C@H](O)[C@H]1NS(=O)(=O)[O-].[Na+].[Na+].[Na+].[Na+].[Na+].[Na+].[Na+].[Na+].[Na+].[Na+] [FONDAPARINUX SODIUM]	0	0	0	0	0	0	0	0	0	0	0	1	0	1
O=C[C@H](O)[C@@H](O)[C@@H](O)[C@H](O)CO [GALACTOSE]	0	0	0	0	0	0	0	0	0	0	0	0	0	0
COc1cccc2c1C(=O)c1c(O)c3c(c(O)c1C2=O)C[C@@](O)(C(=O)CO)C[C@@H]3O[C@H]1C[C@H](N)[C@H](O)[C@H](C)O1 [DOXORUBICIN]	0	0	0	0	1	1	0	1	1	0	0	5	1	0
C[C@]12C/C(=C/O)C(=O)C[C@@H]1CC[C@@H]1[C@@H]2CC[C@@]2(C)[C@H]1CC[C@]2(C)O [OXYMETHOLONE]	1	0	0	0	0	0	0	0	1	0	0	2	0	0
